The target in assay [1] is T1, PRDX1 (Homo sapiens, UniProt Q06830).
T1 sequence (Q06830 1-199): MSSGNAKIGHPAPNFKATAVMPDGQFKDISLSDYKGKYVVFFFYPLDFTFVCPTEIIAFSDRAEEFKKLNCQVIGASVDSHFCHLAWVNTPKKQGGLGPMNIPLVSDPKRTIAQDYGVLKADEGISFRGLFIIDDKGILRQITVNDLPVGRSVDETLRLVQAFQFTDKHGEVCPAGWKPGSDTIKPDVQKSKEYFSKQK
Put plainly: PRDX1 inhibition assay. Type of assay: biochemical. As to conditions: mean ± SD, n = 3; read-out: PRDX1 (IC50). How it is done: The cells were purchased from the American Type Culture Collection (ATCC) (Manassas, VA, United States). Cells were cultured in RPMI-1640 medium supplemented with 10% FBS, 50 units/mL penicillin, and 50 μg/mL streptomycin, and maintained at 37°C in a 5% CO2 humidified culture environment. CPs 1-5 were purchased from WuXi AppTec. Human PRDX1 proteins were purchased from Abcam (Cambridge, MA, United States).
First, […] buffer (20 mM HEPES, 5 mM EDTA, 5 μM cofactor A, 2 μM cofactor B, and 300 μM NADPH) was added to a 96-well plate. The test compounds at the designated concentration (0.02–2 nM, with 1.5-fold dilution) were incubated with PRDX1 at 37°C for 25 min, and then the co-incubated mixture was added to each well to a final concentration of 200 nM PRDX1. Finally, 200 μM H2O2 was added to each well to initiate the enzyme reaction cycle. The oxidation of NADPH was determined by the absorption value at 340 nm. Read plate values for 90 s for one cycle and repeat for 20 cycles. The positive control (celastrol, concentrations 0.06–64 μM) was tested in parallel under identical experimental conditions. Three independent replicate experiments were performed.

Assay [2] has as its target T1, PRDX1. Kind of assay: Kinetics studies of PRDX1 inhibition. The assay is classed as biochemical. The settings on record: mean ± SD, n = 3. The method, then: The PRDX1 protein (0.5 nM) was incubated with varying concentrations of the CP1 (0, 0.6, 1.5, and 3.8 nM) at room temperature for 1 h. Subsequently, the Trx/TrxR/NADPH mixture was added and the enzymatic reaction was initiated by the addition of different concentrations of H2O2 (5–1,000 μM). The absorbance changes at 340 nm were monitored in real-time using a microplate reader. Kinetic parameters, including the Michaelis constant (Km), maximum reaction rate (Vmax), and α value, were determined by fitting the data to the Michaelis-Menten equation.

Assay [3] concerns the target T1, PRDX1. Kind of assay: MST assay. Type of assay: binding. As to conditions: MST; mean ± SD, n = 3; read-out: PRDX1 (Kd). The method, then: The MST assays were carried out in a buffer composed of 50 mM Tris, 200 mM NaCl, and 0.1% (v/v) TWEEN20. PRDX1 was tagged with the MO-L011 protein labeling kit (RED-NHS second Generation). The diluted compounds were combined with the tagged PRDX1 protein and allowed to stand at room temperature for 5 minutes. Subsequently, the reaction mixture was loaded into capillaries, and measurements were taken using a Monolith NT.115 instrument.

Assay [4] has as its system A549 lung cancer cells. Put plainly: MTT assay. Type of assay: cell-based. How it is done: (§1) Cells were seeded in 96-well plates at 5 ×10^4 cells/well and cultured overnight at 37°C under 5% CO2. After medium removal, cells were treated with serially diluted compounds (0.04–163.84 μM) or vehicle control (0.1% DMSO) and incubated for 72 h. Subsequently, 20 μL of MTT solution (5 mg/mL) was added to each well, and incubation was continued for 4 h. Add 150 μL of DMSO and shake for 10 min to fully dissolve the crystal. Finally, the absorbance was measured at 570 nm using a microplate reader. Cell viability was calculated as (ODcompound - ODblank)/(ODvehicle - ODblank) × 100%. The half inhibitory concentration (IC50) was calculated from the dose-response curve using Prism 8.0 software. Three independent replicate experiments were performed.

Assay [5] has as its system BEAS-2B normal lung cells. Put plainly: MTT assay. The assay is classed as cell-based. As to conditions: Homo sapiens, MTT, 72 h, normal lung cells, mean ± SD, n = 3, read-out: IC50 (μM) BEAS-2B. The method, then: as §1
Assay [6] has as its system HEK293 (embryonic kidney cells). Put plainly: MTT assay. The assay is classed as cell-based. The settings on record: Homo sapiens, HEK293; MTT, 72 h; normal cells; mean ± SD, n = 3; read-out: IC50 (μM) HEK293. How it is done: as §1
Assay [7] deals with HaCaT (immortalised keratinocytes). Put plainly: MTT assay. Type of assay: cell-based. The settings on record: Homo sapiens, 72 h, normal cells, mean ± SD, n = 3. How it is done:
as §1

The test system of assay [8] is HepG2 (hepatocellular carcinoma cells). Kind of assay: MTT assay. Type of assay: cell-based. As to conditions: Homo sapiens, HepG2; MTT, 72 h; mean ± SD, n = 3; read-out: IC50 (μM) HepG2. How it is done:
as §1

The subject of assay [9] is LO2 (normal liver cells). Put plainly: MTT assay. The assay is classed as cell-based. The settings on record: Homo sapiens; MTT, 72 h; normal cells; mean ± SD, n = 3; read-out: IC50 (μM) LO2. The method, then:
as §1

In assay [10] the test system is MCF-7 (breast adenocarcinoma cells). Put plainly: MTT assay. As to conditions: Homo sapiens, MCF7; MTT, 72 h; mean ± SD, n = 3; read-out: IC50 (μM) MCF-7. Type of assay: cell-based. The method, then:
as §1

Assay [11] deals with T2, CSK (Homo sapiens, UniProt P41240).
T2 construct: ICE Biosciences (Beijing, China), ran the assays
Kind of assay: Kinase selectivity assay. The assay is classed as biochemical. As to conditions: target CSK; read-out: CP1 IC50. How it is done: (§2) The selectivity of CP1 for PRDX1 was evaluated through kinase selectivity assays against other PRDX family members and a panel of kinases. The experiments were conducted by ICE Biosciences (Beijing, China).

Assay [12] concerns the target T3, DDR2 (Homo sapiens, UniProt Q16832).
T3 construct: ICE Biosciences (Beijing, China), ran the assays
Put plainly: Kinase selectivity assay. Type of assay: biochemical. The method, then:
as §2

Assay [13] deals with T4, FLT1 (Homo sapiens, UniProt P17948).
T4 construct: assay run by ICE Biosciences (Beijing, China)
Kind of assay: Kinase selectivity assay. The assay is classed as biochemical. The settings on record: target FLT1; read-out: CP1 IC50. The method, then:
as §2

For assay [14], the target named is MST1R (Homo sapiens, UniProt Q04912). Kind of assay: Kinase selectivity assay. The assay is classed as biochemical. As to conditions: target MST1R; read-out: CP1 IC50. The method, then:
as §2

The target in assay [15] is NTRK2 (Homo sapiens, UniProt Q16620). Put plainly: Kinase selectivity assay. Type of assay: biochemical. The method, then: as §2
The target in assay [16] is T5, PRDX3 (Homo sapiens, UniProt P30048).
T5 construct: ICE Biosciences (Beijing, China), ran the assays
Put plainly: Kinase selectivity assay. As to conditions: target PRDX3; read-out: CP1 IC50. Type of assay: biochemical. How it is done: as §2

SMILES strings stand for the structures.

Chain of NTRK2 (Q16620 32-822): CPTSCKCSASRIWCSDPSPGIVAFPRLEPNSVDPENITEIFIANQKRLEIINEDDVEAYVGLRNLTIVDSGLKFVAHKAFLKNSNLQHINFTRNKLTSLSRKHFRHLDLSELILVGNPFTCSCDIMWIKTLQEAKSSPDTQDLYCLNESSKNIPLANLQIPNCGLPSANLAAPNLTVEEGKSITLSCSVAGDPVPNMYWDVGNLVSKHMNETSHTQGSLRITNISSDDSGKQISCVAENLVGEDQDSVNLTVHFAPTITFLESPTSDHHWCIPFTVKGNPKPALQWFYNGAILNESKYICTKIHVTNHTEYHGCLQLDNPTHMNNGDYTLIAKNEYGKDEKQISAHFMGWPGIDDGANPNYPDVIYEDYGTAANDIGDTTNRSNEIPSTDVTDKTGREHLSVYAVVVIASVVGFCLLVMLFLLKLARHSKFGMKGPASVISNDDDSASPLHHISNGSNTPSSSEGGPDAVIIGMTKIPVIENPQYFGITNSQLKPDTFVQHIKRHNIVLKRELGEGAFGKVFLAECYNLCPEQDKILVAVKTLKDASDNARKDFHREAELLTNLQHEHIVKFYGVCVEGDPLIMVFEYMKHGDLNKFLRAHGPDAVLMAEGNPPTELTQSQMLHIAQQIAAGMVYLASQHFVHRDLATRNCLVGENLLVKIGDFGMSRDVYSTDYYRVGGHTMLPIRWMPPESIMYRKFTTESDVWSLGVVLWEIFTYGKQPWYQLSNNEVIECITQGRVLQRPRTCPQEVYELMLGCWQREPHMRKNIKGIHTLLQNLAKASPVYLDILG
Chain of MST1R (Q04912 25-1400): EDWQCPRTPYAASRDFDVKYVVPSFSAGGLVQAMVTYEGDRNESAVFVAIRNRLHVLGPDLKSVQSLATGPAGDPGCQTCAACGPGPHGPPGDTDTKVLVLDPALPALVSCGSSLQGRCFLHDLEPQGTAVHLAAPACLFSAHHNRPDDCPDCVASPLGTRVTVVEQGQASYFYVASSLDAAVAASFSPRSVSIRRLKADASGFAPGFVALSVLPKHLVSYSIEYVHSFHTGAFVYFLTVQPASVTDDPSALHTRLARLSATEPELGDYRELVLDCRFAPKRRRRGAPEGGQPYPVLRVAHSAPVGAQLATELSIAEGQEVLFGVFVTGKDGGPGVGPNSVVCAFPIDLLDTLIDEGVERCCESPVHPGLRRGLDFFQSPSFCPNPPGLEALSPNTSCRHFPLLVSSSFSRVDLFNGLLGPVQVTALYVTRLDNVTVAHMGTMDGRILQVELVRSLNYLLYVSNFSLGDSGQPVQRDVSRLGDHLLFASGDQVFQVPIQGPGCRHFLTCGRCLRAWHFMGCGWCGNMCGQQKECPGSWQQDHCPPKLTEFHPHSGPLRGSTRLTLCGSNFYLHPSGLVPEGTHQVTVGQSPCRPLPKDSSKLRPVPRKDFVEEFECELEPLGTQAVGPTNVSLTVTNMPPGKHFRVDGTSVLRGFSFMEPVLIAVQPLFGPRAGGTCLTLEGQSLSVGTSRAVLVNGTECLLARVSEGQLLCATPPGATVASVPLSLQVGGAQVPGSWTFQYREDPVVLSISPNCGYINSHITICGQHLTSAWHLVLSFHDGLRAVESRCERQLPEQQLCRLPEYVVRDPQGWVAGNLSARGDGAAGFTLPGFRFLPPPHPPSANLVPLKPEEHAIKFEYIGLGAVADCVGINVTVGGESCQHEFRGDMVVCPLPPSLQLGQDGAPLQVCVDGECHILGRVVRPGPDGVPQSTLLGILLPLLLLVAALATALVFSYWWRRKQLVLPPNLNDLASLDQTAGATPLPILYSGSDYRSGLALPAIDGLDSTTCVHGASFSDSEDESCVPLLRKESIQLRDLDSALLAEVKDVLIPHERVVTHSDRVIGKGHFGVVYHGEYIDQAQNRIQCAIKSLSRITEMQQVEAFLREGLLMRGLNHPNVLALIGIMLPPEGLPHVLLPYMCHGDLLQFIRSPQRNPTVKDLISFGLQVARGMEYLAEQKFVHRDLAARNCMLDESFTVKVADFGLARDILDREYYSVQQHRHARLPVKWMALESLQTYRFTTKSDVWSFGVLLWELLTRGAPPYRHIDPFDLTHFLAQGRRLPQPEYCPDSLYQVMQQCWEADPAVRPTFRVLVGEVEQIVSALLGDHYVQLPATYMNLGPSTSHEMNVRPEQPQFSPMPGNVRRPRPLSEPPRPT
T2 sequence (P41240 whole entry): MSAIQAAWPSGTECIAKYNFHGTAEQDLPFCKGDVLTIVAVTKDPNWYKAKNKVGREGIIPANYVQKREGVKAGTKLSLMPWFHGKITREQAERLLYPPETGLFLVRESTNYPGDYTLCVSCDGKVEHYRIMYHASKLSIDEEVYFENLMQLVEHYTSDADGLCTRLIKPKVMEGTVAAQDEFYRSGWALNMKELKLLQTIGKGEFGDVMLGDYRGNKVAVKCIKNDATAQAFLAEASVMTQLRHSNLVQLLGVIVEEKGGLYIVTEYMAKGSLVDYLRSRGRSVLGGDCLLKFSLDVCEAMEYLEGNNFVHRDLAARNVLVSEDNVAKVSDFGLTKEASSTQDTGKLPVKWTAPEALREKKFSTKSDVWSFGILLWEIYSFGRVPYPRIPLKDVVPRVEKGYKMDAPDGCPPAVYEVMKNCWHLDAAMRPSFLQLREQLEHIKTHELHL
T5 sequence (P30048 62-256): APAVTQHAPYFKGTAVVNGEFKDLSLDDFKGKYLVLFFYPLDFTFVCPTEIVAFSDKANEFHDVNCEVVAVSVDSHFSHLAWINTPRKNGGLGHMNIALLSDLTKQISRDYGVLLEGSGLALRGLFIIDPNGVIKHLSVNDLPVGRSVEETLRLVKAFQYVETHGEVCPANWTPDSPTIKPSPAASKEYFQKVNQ
T3 sequence (Q16832 22-855): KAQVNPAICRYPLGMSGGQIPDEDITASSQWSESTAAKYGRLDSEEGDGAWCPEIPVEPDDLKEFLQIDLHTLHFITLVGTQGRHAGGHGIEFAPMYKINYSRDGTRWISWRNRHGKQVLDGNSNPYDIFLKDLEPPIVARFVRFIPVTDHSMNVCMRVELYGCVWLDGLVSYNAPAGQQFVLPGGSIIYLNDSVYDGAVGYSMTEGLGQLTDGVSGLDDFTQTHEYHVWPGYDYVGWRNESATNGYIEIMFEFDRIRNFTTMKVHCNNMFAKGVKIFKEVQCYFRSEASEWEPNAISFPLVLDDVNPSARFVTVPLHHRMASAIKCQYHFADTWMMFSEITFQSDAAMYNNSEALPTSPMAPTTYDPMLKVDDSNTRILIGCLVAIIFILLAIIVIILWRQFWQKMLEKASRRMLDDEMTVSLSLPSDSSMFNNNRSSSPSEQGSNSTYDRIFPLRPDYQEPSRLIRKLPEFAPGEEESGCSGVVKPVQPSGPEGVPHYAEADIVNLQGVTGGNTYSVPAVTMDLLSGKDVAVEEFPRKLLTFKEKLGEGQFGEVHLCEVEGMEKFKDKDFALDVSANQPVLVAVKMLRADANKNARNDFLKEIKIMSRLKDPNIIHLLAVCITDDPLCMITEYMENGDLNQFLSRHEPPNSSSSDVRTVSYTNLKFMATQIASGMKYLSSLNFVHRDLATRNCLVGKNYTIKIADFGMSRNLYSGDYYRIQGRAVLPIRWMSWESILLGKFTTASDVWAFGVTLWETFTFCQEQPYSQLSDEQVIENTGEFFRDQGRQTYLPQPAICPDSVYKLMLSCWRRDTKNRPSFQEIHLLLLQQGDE
T4 sequence (P17948 27-1338): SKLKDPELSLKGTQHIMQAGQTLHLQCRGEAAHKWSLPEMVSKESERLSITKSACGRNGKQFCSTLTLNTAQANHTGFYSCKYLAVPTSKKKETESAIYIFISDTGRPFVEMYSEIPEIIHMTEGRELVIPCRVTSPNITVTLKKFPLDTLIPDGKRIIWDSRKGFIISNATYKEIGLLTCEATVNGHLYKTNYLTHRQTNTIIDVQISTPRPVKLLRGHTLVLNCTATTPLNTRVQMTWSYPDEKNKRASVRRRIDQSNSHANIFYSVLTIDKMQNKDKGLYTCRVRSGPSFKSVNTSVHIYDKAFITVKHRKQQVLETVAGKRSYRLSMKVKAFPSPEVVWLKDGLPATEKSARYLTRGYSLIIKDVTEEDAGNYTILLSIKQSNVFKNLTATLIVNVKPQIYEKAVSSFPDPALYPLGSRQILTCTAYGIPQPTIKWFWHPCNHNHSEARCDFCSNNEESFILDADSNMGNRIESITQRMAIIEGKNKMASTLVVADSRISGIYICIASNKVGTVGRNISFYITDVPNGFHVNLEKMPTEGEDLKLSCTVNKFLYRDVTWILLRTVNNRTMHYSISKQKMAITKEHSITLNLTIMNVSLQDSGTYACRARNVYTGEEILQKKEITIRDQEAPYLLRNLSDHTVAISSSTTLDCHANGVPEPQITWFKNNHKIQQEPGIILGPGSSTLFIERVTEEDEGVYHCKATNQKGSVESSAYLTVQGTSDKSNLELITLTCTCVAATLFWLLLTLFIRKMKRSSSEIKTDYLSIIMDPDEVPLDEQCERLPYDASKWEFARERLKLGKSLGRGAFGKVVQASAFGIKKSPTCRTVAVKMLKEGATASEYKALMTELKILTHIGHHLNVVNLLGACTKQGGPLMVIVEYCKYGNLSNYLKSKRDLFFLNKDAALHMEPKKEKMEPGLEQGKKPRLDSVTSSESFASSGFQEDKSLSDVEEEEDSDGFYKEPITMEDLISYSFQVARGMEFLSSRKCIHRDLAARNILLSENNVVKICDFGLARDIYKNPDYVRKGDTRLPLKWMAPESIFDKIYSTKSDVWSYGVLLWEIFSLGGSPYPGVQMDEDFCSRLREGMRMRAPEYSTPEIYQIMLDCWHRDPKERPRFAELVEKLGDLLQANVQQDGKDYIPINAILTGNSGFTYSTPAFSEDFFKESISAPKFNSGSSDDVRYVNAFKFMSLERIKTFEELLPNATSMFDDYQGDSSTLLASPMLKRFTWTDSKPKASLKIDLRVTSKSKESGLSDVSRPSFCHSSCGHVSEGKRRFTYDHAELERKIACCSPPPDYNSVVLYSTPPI

For the compound `CC1=C(CC(=O)/C=C/c2cccc(CO)c2)C(=O)C=C2C1=CC=C1[C@@]2(C)CC[C@@]2(C)C3C[C@](C)(C(=O)CCc4nc(C(O)C(O)O)c(C)nc4C)CC[C@]3(C)CC[C@]12C` (stereo partly shown) [CP1], the 50% inhibitory concentration (IC50) in [1] is 80 ± 10 pM; in assay [4] (Homo sapiens, A549, MTT, 72 h, mean ± SD, n = 3, read-out: IC50 (μM) A549), 0.22 ± 0.01 µM; in [5], > 100 µM; in assay [6], > 100 µM; in assay [7], > 100 µM; in [8] it was 0.25 ± 0.02 µM. The IC50 in assay [9] is > 100 µM; in [10], 0.27 ± 0.01 µM; in [11], > 30 µM; in assay [12] it was > 30 µM; in assay [13], > 30 µM; in assay [14] it was > 30 µM. For the same compound, the IC50 in assay [15] and in assay [16] was > 30 µM in each case. The figures for the “Vmax” value in [2] (CP1 concentration 0.6 nM), in [2] (CP1 concentration 1.5 nM) and in [2] (CP1 concentration 3.8 nM) were 56.2 ± 1.94 M/s, 40.7 ± 2.42 M/s and 26.8 ± 1.07 M/s, respectively. The equilibrium dissociation constant (Kd) in assay [3] came out at 60 ± 1 pM. In assay [4] (ratio of IC50 values), the “improvement of antiproliferative activity against A549 cells compared to celastrol” value is reported as “approximately 5 fold”.

Values taken from article PMC12325182, “Discovery of novel and potent celastrol derivatives as PRDX1 inhibitors for cancer therapy through structure-based virtual screening” (Frontiers in Pharmacology, 2025).
